Key:
poly(I:C)-treated mice = assay: Poly(I:C) pulmonary NET induction, mouse model of RNA viral lung infection; assay type: in vivo; conditions: for NET induction (CitH3 and MPO-DNA complexes in BALF and lung tissue): ELISA, FIGS. 2E-2H; for neutrophils in the BALF and in the lung: compared with poly(I:C) only, FIGS. 6D-6F; for neutrophil levels in the blood: cytofluorimetry, FIGS. 6B and 6C; for morbidity, measured as temperature drop / lung permeability (albumin content in BALF) / lung functionality (airway hyperreactivity to methacholine): ricolinostat 30 mg/kg/dose or GSK484 25 mg/kg/dose i.p., vs poly(I:C) only; for morbidity, measured as temperature drop: FIG. 2B; for lung permeability (albumin content in BALF): FIG. 2C; for lung functionality (airway hyperreactivity to methacholine): FIG. 2D
Procedure: Mice were intratracheally treated with 2.5 mg/kg poly(I:C) or saline daily for 4 days and euthanized 18 h post the last poly(I:C) instillation. Ricolinostat (30 mg/kg/dose) or GSK484 (25/mg/kg/dose) was administered intraperitoneally at day 2, day 4, and 3 h before the endpoint. • (B) Body temperature measurements at the endpoint. • (C) Lung permeability was measured as albumin content level in the BALF (n=5). • (D) Measure of airway hyperreactivity (AHR) in the indicated groups in response to increasing concentration of methacholine. RI, responsiveness index. • (E-H) CitH3 and MPO-DNA levels were analyzed by ELISA in BALFs (E, F) and in lungs (G, H) of mice treated as indicated. The saline group represents mice that received saline instead of poly(I:C). NT group represents mice that were challenged with poly(I:C) without receiving any drug. Statistics were calculated using one-way ANOVA (B, C, E-H) and two-way ANOVA with Tukey's analysis (D) (*p<0.05; **p<0.01; ***p<0.001; ****p<0.0001. n.s., not significant). n=10 (B, D) and 15 (E-H) for each group except for the GSK484-treated group (n=5). Gray stars represent comparison of all experimental groups with the saline-treated control. Black stars represent comparison between drug-treated groups and mice treated with poly(I:C) alone. Violin plots represent median (dashed line) with quartiles (dotted line). See also FIGS. 6A-F.
Nuclei are stained with DAPI (blue), and anti-neutrophils antibody (red). Scale bar=100 μm. • B-F) Neutrophils numbers and percentage were calculated in blood (B, C), BALFs (D, E), and lung tissues (F) of mice challenged, or not, with poly(I:C). The saline group represents mice that received saline instead of poly (I:C). NT group represent mice that were challenged with poly (I:C) without receiving any drug. Ricolinostat (30 mg/kg/dose) or GSK484 (25 mg/kg/dose) were administered intraperitoneally at day 2, day 4 and 3 h prior the endpoint. Violin plots represent median (dashed line) with quartiles (dotted line). Statistics were calculated using One-way ANOVA (*P<0.05; **P<0.01; ***P<0.001; ****P<0.0001; n.s., not significant). Grey stars represent comparison of all experimental groups with the saline control. Black stars represent comparison of drug treated groups with NT group.
NETosis was measured in bronco-alveolar lavage fluid or lung tissue homogenates as quantity of citrullinated histone H3 with Citrullinated histone H3 ELISA kit (Cayman) and as quantity of myeloperoxidase (MPO)-DNA complexes by using a modified Cell Death Detection ELISA (Roche). Briefly, anti-myeloperoxidase antibody (ThermoFisher) was used to coat a high-binding 96 multi-well plate overnight at 4° C. Following a 1 h blocking with 2% BSA/PBS solution, samples were added for an overnight incubation at 4° C. Finally, DNA was detected with Cell Death Detection kit according to manufacture instruction. Absorbance was measured at 405 nm and MPO-DNA complex levels were quantified as normalized relative to saline.
6-8 weeks-old female mice were treated daily with 2.5 mg/kg of poly (I:C) for 4 days and euthanized 18 hours post the last poly(I:C) intra-tracheal instillation, as previously described (Broggi et al., 2020). Temperatures were monitored with a rectal probe. NETosis was measured in bronco-alveolar lavage fluid and lung homogenates as quantity of citrullinated histone H3 and quantity of MPO-DNA complexes. Ricolinostat (30 mg/kg/dose) and GSK484 (25 mg/kg/dose) were administered intraperitoneally at day 2, day 4 and 3 hours prior the end point.

[1] = test system: mice treated with S. aureus; assay: S. aureus pulmonary infection model (bacterial pneumonia); assay type: in vivo, mouse; conditions: for NETosis (citrullinated histone H3 and MPO-DNA complexes in BALF): ELISA, FIGS. 3E and 3F; for bacterial control (S. aureus CFU in lung homogenates): FIG. 3D; for numbers of neutrophils in the BALF: FIG. 3I; for neutrophils circulating in the blood: FIGS. 3H, 7A; for lung barrier alteration (albumin content in BALF): compared with S. aureus alone, FIG. 3C; for citrullinated histone H3-positive neutrophils in the BALF: cytofluorimetric quantification, FIG. 3G; for IL-1β / IL-6: in the BALF, compared with S. aureus only, FIGS. 7B-7D

Compound | NET induction (CitH3 and MPO-DNA complexes in BALF and lung tissue) (poly(I:C)-treated mice) | neutrophils in the BALF and in the lung (poly(I:C)-treated mice) | neutrophil levels in the blood (poly(I:C)-treated mice) | morbidity, measured as temperature drop (poly(I:C)-treated mice) | lung permeability (albumin content in BALF) (poly(I:C)-treated mice) | lung functionality (airway hyperreactivity to methacholine) (poly(I:C)-treated mice) | NETosis (citrullinated histone H3 and MPO-DNA complexes in BALF) [1] | bacterial control (S. aureus CFU in lung homogenates) [1] | numbers of neutrophils in the BALF [1] | neutrophils circulating in the blood [1] | lung barrier alteration (albumin content in BALF) [1] | citrullinated histone H3-positive neutrophils in the BALF [1] | IL-1β [1] | IL-6 [1] | activity compared with GSK484 in all the conditions tested (poly(I:C)-treated mice; outcompeted i.e. increased survival of neutrophils in the BALF) | morbidity (body temperature) ([1]; ricolinostat 30 mg/kg/dose i.p. at -24 h and -3 h, compared with S. aureus only and with S. aureus and GSK484, FIG. 3B)
COc1cc(C(=O)N2CC[C@@H](O)[C@@H](N)C2)cc2nc(-c3cc4ccccc4n3CC3CC3)n(C)c12 [GSK484] | abrogated | trend of accumulation | did not change significantly | significantly reduced | significantly preserved | significantly preserved | potently decreased | not affected | increased numbers | no major differences | prevented | inhibit NETosis | significantly decreased | significantly decreased | – | –
O=C(CCCCCCNC(=O)c1cnc(N(c2ccccc2)c2ccccc2)nc1)NO [ricolinostat] | abrogated | trend of accumulation | did not change significantly | significantly reduced | significantly preserved | significantly preserved | potently decreased | not affected | increased numbers | no major differences | prevented | inhibit NETosis | significantly decreased | significantly decreased | phenocopied, and in some cases outcompeted | significantly decreased
